Positions of bridges follow the written chain, without caps; N, C: chain ends. Non-standard residues stand in square brackets, D forms with d. Residues, ends and D or L forms follow the SMILES beside them. *: point of attachment. NH(1-deoxy-D-glucityl) = OC[C@@H](O)[C@@H](O)[C@H](O)[C@@H](O)CN*; Trp(1-CH2COOH) = N[C@@H](Cc1cn(CC(=O)O)c2ccccc12)C(=O)O; Phe(3-COOH) = N[C@@H](Cc1cccc(C(=O)O)c1)C(=O)O; NMePhe(3-Cl) = CN[C@@H](Cc1cccc(Cl)c1)C(=O)O; 3Pal(6-NH2) = Nc1ccc(C[C@H](N)C(=O)O)cn1; NMe3Pal = CN[C@@H](Cc1cccnc1)C(=O)O; NMeY = CN[C@@H](Cc1ccc(O)cc1)C(=O)O; 3Pal = N[C@@H](Cc1cccnc1)C(=O)O; 4Pal = N[C@@H](Cc1ccncc1)C(=O)O; PEG4 = NCCOCCOCCOCCOCCC(=O)O; Carboxymethyl = O=C(O)C*; NHCH2CH2OMe = COCCN*
molecular target: T1, human transferrin receptor (hTfR) (Homo sapiens, UniProt P02786); experiment: Evaluation of molecular interaction between transferrin receptor (hTfR) and peptide using surface plasmon resonance (SPR); assay type: binding; conditions: KD class for binding to hTfR by SPR; peptide with the linker shown in the same line; 'low signal indicates no activity'; read-out: SPR
T1 construct: made in house
T1 sequence (P02786 89-760 limits assumed): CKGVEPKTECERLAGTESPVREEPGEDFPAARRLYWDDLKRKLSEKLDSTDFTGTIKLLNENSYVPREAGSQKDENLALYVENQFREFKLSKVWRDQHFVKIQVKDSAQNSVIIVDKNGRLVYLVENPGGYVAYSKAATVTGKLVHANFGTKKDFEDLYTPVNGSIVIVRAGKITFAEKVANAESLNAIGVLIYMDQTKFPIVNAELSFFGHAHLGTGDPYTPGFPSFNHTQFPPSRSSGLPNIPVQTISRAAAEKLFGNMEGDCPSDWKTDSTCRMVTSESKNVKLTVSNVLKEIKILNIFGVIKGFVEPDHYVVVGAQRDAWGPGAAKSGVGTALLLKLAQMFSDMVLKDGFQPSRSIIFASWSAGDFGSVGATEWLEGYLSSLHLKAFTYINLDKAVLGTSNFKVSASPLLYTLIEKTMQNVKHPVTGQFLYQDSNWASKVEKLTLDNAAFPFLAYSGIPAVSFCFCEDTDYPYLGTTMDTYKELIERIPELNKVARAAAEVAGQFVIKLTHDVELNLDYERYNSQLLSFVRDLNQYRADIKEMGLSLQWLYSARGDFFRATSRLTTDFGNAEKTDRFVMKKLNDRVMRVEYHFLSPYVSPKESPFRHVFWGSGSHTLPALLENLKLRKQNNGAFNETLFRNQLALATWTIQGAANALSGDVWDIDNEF
Procedure: Evaluation Test of Molecular Interaction Between Transferrin Receptor (hTfR) and Peptide Using Surface Plasmon Resonance (SPR)
The intermolecular interactions of various synthesized peptides with the transferrin receptor (hTfR) by surface plasmon resonance (SPR) of the peptides were tested by the methods described below. Specific test methods are shown below.
NTA sensor chip (Global Life Sciences Technologies Japan K.K.) was inserted into BiacoreT200 (Global Life Sciences Technologies Japan K.K.), then the priming operation was performed three times by using running buffer containing: 10 mM HEPES pH 8.0 (Nacalai Tesque, Inc.), 150 mM NaCl (Nacalai Tesque, Inc.), 0.05% Tween 20 (Nacalai Tesque, Inc.), 0.1% BSA (SIGMA-ALDRICH) and 1.0% DMSO (FUJIFILM Wako Pure Chemical Corporation), and equilibrated at a flow rate of 30 μL/min. 350 mM EDTA solution was reacted at a flow rate of 10 μL/min for 60 seconds, 0.5 mM […] solution (Kishida Chemical Co., Ltd.) was reacted at a flow rate of 10 μL/min for 60 seconds, and then the NTA sensor chip was washed with 3 mM EDTA solution (Nacalai Tesque, Inc.) at a flow rate of 10 μL/min for 60 seconds. After mixing 50 μL each of 60 mM EDC solution (Global Life Science Technologies Japan K.K.) and 650 mM NHS solution (Global Life Science Technologies Japan K.K.), the reaction was carried out at a flow rate of 10 μL/min for 420 seconds. 150 μL of 0.5 μM hTfR dimer solution was prepared by dilution with running buffer and reacted at a flow rate of 10 μL/min for 300 seconds to immobilize hTfR on the NTA sensor chip. For the human transferrin receptor (hTfR), recombinant hTfR described in Example 2 of WO2018/124121 was used. After immobilization, capping was performed by reacting with 1.0 M ethanolamine solution (Global Life Sciences Technologies Japan K.K.) at a flow rate of 10 μL/min for 420 seconds. Peptide lysate prepared in DMSO solution to 10 mM was diluted with running buffer to be a final concentration of 10 μM peptide lysate, then peptide solutions of 100 nM, 50 nM, 25 nM, 10 nM, and 5 nM were prepared. Using the above samples, the kinetics of the peptide against hTfR was obtained by SPR measurement.
The kinetic evaluation model was single-cycle kinetics, and curve fitting was performed using Biacore T200 Evaluation Software Version 3.0 (Global Life Science Technologies Japan K.K.). The binding of the peptide to hTfR was evaluated by performing curve fitting on the obtained sensorgram by least squares method and obtaining the KD value.

Row | Kd | Structure (SMILES)
1 | 1 to 100 nM | CC[C@H](C)[C@@H]1NC(=O)[C@H](Cc2cccnc2)NC(=O)[C@H](Cc2ccc(O)cc2)NC(=O)[C@H](CC(N)=O)NC(=O)[C@H](Cc2c[nH]c3ccccc23)NC(=O)[C@H](C(C)C)NC(=O)[C@H](Cc2cccc(Cl)c2)N(C)C(=O)[C@H](C(C)C)NC(=O)[C@H](C)NC(=O)CSC[C@@H](C(=O)NCCOCCOCCOCCOCCC(N)=O)NC(=O)[C@H](Cc2ccc(O)cc2)N(C)C(=O)[C@H](Cc2ccncc2)NC(=O)[C@H](CCC(=O)NCCOC)NC(=O)[C@H](CCC(=O)NCCOC)NC(=O)[C@H]([C@@H](C)CC)NC1=O [894_0326] ({CH2CO}-AV[NMePhe(3-Cl)]VWNY[3Pal]IIE(NHCH2CH2OMe)E(NHCH2CH2OMe)[4Pal][NMeY]C[PEG4]-NH2; thioether N-15)
2 | 1 to 100 nM | CC[C@H](C)[C@@H]1NC(=O)[C@H](Cc2ccc(OC)cc2)NC(=O)[C@H](Cc2ccc(O)cc2)NC(=O)[C@H](CC(N)=O)NC(=O)[C@H](Cc2c[nH]c3ccccc23)NC(=O)[C@H](C(C)C)NC(=O)[C@H](Cc2cccc(Cl)c2)N(C)C(=O)[C@H](C(C)C)NC(=O)[C@H](C)NC(=O)CSC[C@@H](C(=O)NCCOCCOCCOCCOCCC(N)=O)NC(=O)[C@H](Cc2ccc(O)cc2)N(C)C(=O)[C@H](Cc2ccccc2)NC(=O)[C@H](CCC(=O)NCCOC)NC(=O)[C@H](CCC(=O)NCCOC)NC(=O)[C@H]([C@@H](C)CC)NC1=O [894_0330] ({CH2CO}-AV[NMePhe(3-Cl)]VWNYY(Me)IIE(NHCH2CH2OMe)E(NHCH2CH2OMe)F[NMeY]C[PEG4]-NH2; thioether N-15)
3 | 1 to 100 nM | CC[C@H](C)[C@@H]1NC(=O)[C@H](Cc2ccc(OC)cc2)NC(=O)[C@H](Cc2ccc(O)cc2)NC(=O)[C@H](CC(N)=O)NC(=O)[C@H](Cc2c[nH]c3ccccc23)NC(=O)[C@H](C(C)C)NC(=O)[C@H](Cc2cccc(Cl)c2)N(C)C(=O)[C@H](C(C)C)NC(=O)[C@H](C)NC(=O)CSC[C@@H](C(=O)NCCOCCOCCOCCOCCC(N)=O)NC(=O)[C@H](Cc2ccc(O)cc2)N(C)C(=O)[C@H](Cc2ccccc2)NC(=O)[C@H](CCC(N)=O)NC(=O)[C@H](CCC(N)=O)NC(=O)[C@H]([C@@H](C)CC)NC1=O [894_0331] ({CH2CO}-AV[NMePhe(3-Cl)]VWNYY(Me)IIQQF[NMeY]C[PEG4]-NH2; thioether N-15)

Further lines, the molecule ahead of its results:

Row | Structure (SMILES) | Kd
4 | CC[C@H](C)[C@@H]1NC(=O)[C@H](Cc2cccnc2)NC(=O)[C@H](Cc2ccc(N)nc2)NC(=O)[C@H](CC(N)=O)NC(=O)[C@H](Cc2c[nH]c3ccccc23)NC(=O)[C@H](C(C)C)NC(=O)[C@H](Cc2cccnc2)N(C)C(=O)[C@H](C(C)C)NC(=O)[C@H](C)NC(=O)CSC[C@@H](C(=O)NCCOCCOCCOCCOCCC(N)=O)NC(=O)[C@H](Cc2ccc(O)cc2)N(C)C(=O)[C@H](Cc2ccncc2)NC(=O)[C@H](CCCNC(=N)N)NC(=O)[C@H](CCCNC(=N)N)NC(=O)[C@H]([C@@H](C)CC)NC1=O [894_0321] ({CH2CO}-AV[NMe3Pal]VWN[3Pal(6-NH2)][3Pal]IIRR[4Pal][NMeY]C[PEG4]-NH2; thioether N-15) | 1 to 100 nM
5 | CC[C@H](C)[C@@H]1NC(=O)[C@H](Cc2cccnc2)NC(=O)[C@H](Cc2ccc(O)cc2)NC(=O)[C@H](CC(N)=O)NC(=O)[C@H](Cc2c[nH]c3ccccc23)NC(=O)[C@H](C(C)C)NC(=O)[C@H](Cc2cccc(Cl)c2)N(C)C(=O)[C@H](C(C)C)NC(=O)[C@H](C)NC(=O)CSC[C@@H](C(=O)NCCOCCOCCOCCOCCC(N)=O)NC(=O)[C@H](Cc2ccc(O)cc2)N(C)C(=O)[C@H](Cc2ccncc2)NC(=O)[C@H](CCC(=O)NC[C@H](O)[C@@H](O)[C@H](O)[C@H](O)CO)NC(=O)[C@H](CCC(=O)NC[C@H](O)[C@@H](O)[C@H](O)[C@H](O)CO)NC(=O)[C@H]([C@@H](C)CC)NC1=O [894_0328] ({CH2CO}-AV[NMePhe(3-Cl)]VWNY[3Pal]IIE(NH(1-deoxy-D-glucityl))E(NH(1-deoxy-D-glucityl))[4Pal][NMeY]C[PEG4]-NH2; thioether N-15) | 1 to 100 nM
6 | CC[C@H](C)[C@@H]1NC(=O)[C@H](Cc2ccc(OCC(=O)O)cc2)NC(=O)[C@H](Cc2ccc(O)cc2)NC(=O)[C@H](CC(N)=O)NC(=O)[C@H](Cc2cn(CC(=O)O)c3ccccc23)NC(=O)[C@H](C(C)C)NC(=O)[C@H](Cc2cccc(Cl)c2)N(C)C(=O)[C@H](C(C)C)NC(=O)[C@H](C)NC(=O)CSC[C@@H](C(=O)NCCOCCOCCOCCOCCC(N)=O)NC(=O)[C@H](Cc2ccc(O)cc2)N(C)C(=O)[C@H](Cc2cccc(C(=O)O)c2)NC(=O)[C@H](CCC(=O)NCCOC)NC(=O)[C@H](CCC(=O)NCCOC)NC(=O)[C@H]([C@@H](C)CC)NC1=O [894_0329] ({CH2CO}-AV[NMePhe(3-Cl)]V[Trp(1-CH2COOH)]NYY(Carboxymethyl)IIE(NHCH2CH2OMe)E(NHCH2CH2OMe)[Phe(3-COOH)][NMeY]C[PEG4]-NH2; thioether N-15) | 1 to 100 nM
